Reference: the supplement of paper PMC10883282

Key:
Test in all cases: relative viability vs DMSO control (72 h) (fraction); higher = more viable cells
A204 = test system: A204
Summary of the method: (§1)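 Sarcoma cell lines in 384-well plates, seeded to reach 80–90% confluence, were given compound after 24 h and kept 72 h at 37 °C, 5% CO2, with 0.1% DMSO vehicle and a 5 µM positive control. Relative viability came from ATPLite as percent growth, averaged over up to triplicate wells. On the rescaled values, 1 equals full and 0 equals none.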

G401 = test system: G401
Summary of the method: as §1

HS729 = test system: HS729
Summary of the method: as §1

KHOS-NP = test system: KHOS-NP
Summary of the method: as §1

MES-SA = test system: MES-SA
Summary of the method: as §1

RD = test system: RD
Summary of the method: as §1

SK-ES-1 = test system: SK-ES-1
Summary of the method: as §1

SK-LMS-1 = test system: SK-LMS-1
Summary of the method: as §1

SW684 = test system: SW684
Summary of the method: as §1

SW872 = test system: SW872
Summary of the method: as §1

SYO-1 = test system: SYO-1
Summary of the method: as §1

VA-ES-BJ = test system: VA-ES-BJ
Summary of the method: as §1

Cc1c(F)cc(C(=O)NC2CC2)cc1-c1ccc(C(=O)NCC(C)(C)C)cn1 [Losmapimod]
Conditions	relative viability
A204, 0.00017 µM	1.06
A204, 0.00051 µM	1.07
A204, 0.00152 µM	1.07
A204, 0.00457 µM	1.06
A204, 0.01372 µM	1.1
A204, 0.04115 µM	1.07
A204, 0.1235 µM	1.07
A204, 0.3704 µM	1.03
A204, 1.111 µM	1.03
A204, 3.333 µM	0.992
A204, 10 µM	0.901
G401, 0.00017 µM	1.06
G401, 0.00051 µM	1.03
G401, 0.00152 µM	1.05
G401, 0.00457 µM	1.074
G401, 0.01372 µM	1.03
G401, 0.04115 µM	1.01
G401, 0.1235 µM	0.981
G401, 0.3704 µM	0.964
G401, 1.111 µM	0.955
G401, 3.333 µM	0.904
G401, 10 µM	0.887
HS729, 0.00017 µM	1.09
HS729, 0.00051 µM	1.04
HS729, 0.00152 µM	1.06
HS729, 0.00457 µM	1.02
HS729, 0.01372 µM	0.972
HS729, 0.04115 µM	0.954
HS729, 0.1235 µM	0.903
HS729, 0.3704 µM	0.848
HS729, 1.111 µM	0.818
HS729, 3.333 µM	0.805
HS729, 10 µM	0.809
KHOS-NP, 0.00017 µM	1.08
KHOS-NP, 0.00051 µM	1.1
KHOS-NP, 0.00152 µM	1.09
KHOS-NP, 0.00457 µM	1.1
KHOS-NP, 0.01372 µM	1.11
KHOS-NP, 0.04115 µM	1.12
KHOS-NP, 0.1235 µM	1.097
KHOS-NP, 0.3704 µM	1.1
KHOS-NP, 1.111 µM	1.097
KHOS-NP, 3.333 µM	1.081
KHOS-NP, 10 µM	1.1
MES-SA, 0.00017 µM	0.997
MES-SA, 0.00051 µM	0.9963
MES-SA, 0.00152 µM	0.967
MES-SA, 0.00457 µM	0.951
MES-SA, 0.01372 µM	0.96
MES-SA, 0.04115 µM	0.935
MES-SA, 0.1235 µM	0.9396
MES-SA, 0.3704 µM	0.928
MES-SA, 1.111 µM	0.8915
MES-SA, 3.333 µM	0.866
MES-SA, 10 µM	0.879
RD, 0.00017 µM	1.11
RD, 0.00051 µM	1.11
RD, 0.00152 µM	1.1
RD, 0.00457 µM	1.14
RD, 0.01372 µM	1.12
RD, 0.04115 µM	1.13
RD, 0.1235 µM	1.11
RD, 0.3704 µM	1.07
RD, 1.111 µM	1.08
RD, 3.333 µM	1.02
RD, 10 µM	1.07
SK-ES-1, 0.00017 µM	1.08
SK-ES-1, 0.00051 µM	1.12
SK-ES-1, 0.00152 µM	1.09
SK-ES-1, 0.00457 µM	1.11
SK-ES-1, 0.01372 µM	1.07
SK-ES-1, 0.04115 µM	1.02
SK-ES-1, 0.1235 µM	1.01
SK-ES-1, 0.3704 µM	0.993
SK-ES-1, 1.111 µM	0.968
SK-ES-1, 3.333 µM	0.915
SK-ES-1, 10 µM	0.879
SK-LMS-1, 0.00017 µM	1.02
SK-LMS-1, 0.00051 µM	1.02
SK-LMS-1, 0.00152 µM	1.01
SK-LMS-1, 0.00457 µM	1
SK-LMS-1, 0.01372 µM	0.995
SK-LMS-1, 0.04115 µM	1.02
SK-LMS-1, 0.1235 µM	1.005
SK-LMS-1, 0.3704 µM	0.978
SK-LMS-1, 1.111 µM	0.981
SK-LMS-1, 3.333 µM	0.967
SK-LMS-1, 10 µM	0.946
SW684, 0.00017 µM	1.11
SW684, 0.00051 µM	1.2
SW684, 0.00152 µM	1.24
SW684, 0.00457 µM	1.21
SW684, 0.01372 µM	1.18
SW684, 0.04115 µM	1.15
SW684, 0.1235 µM	1.13
SW684, 0.3704 µM	1.25
SW684, 1.111 µM	1.21
SW684, 3.333 µM	1.18
SW684, 10 µM	1.19
SW872, 0.00017 µM	1.04
SW872, 0.00051 µM	1.08
SW872, 0.00152 µM	1.07
SW872, 0.00457 µM	1.05
SW872, 0.01372 µM	1.06
SW872, 0.04115 µM	1.04
SW872, 0.1235 µM	1.06
SW872, 0.3704 µM	1.04
SW872, 1.111 µM	1.05
SW872, 3.333 µM	1.04
SW872, 10 µM	1.04
SYO-1, 0.00017 µM	0.993
SYO-1, 0.00051 µM	0.992
SYO-1, 0.00152 µM	0.975
SYO-1, 0.00457 µM	0.975
SYO-1, 0.01372 µM	0.954
SYO-1, 0.04115 µM	0.957
SYO-1, 0.1235 µM	0.915
SYO-1, 0.3704 µM	0.865
SYO-1, 1.111 µM	0.852
SYO-1, 3.333 µM	0.813
SYO-1, 10 µM	0.812
VA-ES-BJ, 0.00017 µM	1.11
VA-ES-BJ, 0.00051 µM	1.1
VA-ES-BJ, 0.00152 µM	1.07
VA-ES-BJ, 0.00457 µM	1.07
VA-ES-BJ, 0.01372 µM	1.07
VA-ES-BJ, 0.04115 µM	1.06
VA-ES-BJ, 0.1235 µM	0.988
VA-ES-BJ, 0.3704 µM	1.03
VA-ES-BJ, 1.111 µM	1.03
VA-ES-BJ, 3.333 µM	1.02
VA-ES-BJ, 10 µM	1

CCN(CCCOc1ccc2c(Nc3cc(CC(=O)Nc4cccc(F)c4)[nH]n3)ncnc2c1)CCOP(=O)(O)O [Barasertib]
Conditions	relative viability
A204, 0.00017 µM	1.05
A204, 0.00051 µM	1.05
A204, 0.00152 µM	1.05
A204, 0.00457 µM	1.04
A204, 0.01372 µM	0.9872
A204, 0.04115 µM	0.907
A204, 0.1235 µM	0.859
A204, 0.3704 µM	0.813
A204, 1.111 µM	0.7
A204, 3.333 µM	0.441
A204, 10 µM	0.379
G401, 0.00017 µM	0.961
G401, 0.00051 µM	0.998
G401, 0.00152 µM	0.996
G401, 0.00457 µM	0.97
G401, 0.01372 µM	0.897
G401, 0.04115 µM	0.798
G401, 0.1235 µM	0.777
G401, 0.3704 µM	0.8003
G401, 1.111 µM	0.799
G401, 3.333 µM	0.776
G401, 10 µM	0.677
HS729, 0.00017 µM	0.957
HS729, 0.00051 µM	0.934
HS729, 0.00152 µM	0.947
HS729, 0.00457 µM	0.936
HS729, 0.01372 µM	0.901
HS729, 0.04115 µM	0.934
HS729, 0.1235 µM	0.877
HS729, 0.3704 µM	0.801
HS729, 1.111 µM	0.8
HS729, 3.333 µM	0.815
HS729, 10 µM	0.804
KHOS-NP, 0.00017 µM	1.03
KHOS-NP, 0.00051 µM	1.03
KHOS-NP, 0.00152 µM	1.04
KHOS-NP, 0.00457 µM	1.048
KHOS-NP, 0.01372 µM	1.05
KHOS-NP, 0.04115 µM	1.072
KHOS-NP, 0.1235 µM	1.08
KHOS-NP, 0.3704 µM	1.09
KHOS-NP, 1.111 µM	1.11
KHOS-NP, 3.333 µM	1.12
KHOS-NP, 10 µM	1.13
MES-SA, 0.00017 µM	0.92
MES-SA, 0.00051 µM	0.915
MES-SA, 0.00152 µM	0.911
MES-SA, 0.00457 µM	0.892
MES-SA, 0.01372 µM	0.692
MES-SA, 0.04115 µM	0.448
MES-SA, 0.1235 µM	0.448
MES-SA, 0.3704 µM	0.447
MES-SA, 1.111 µM	0.436
MES-SA, 3.333 µM	0.444
MES-SA, 10 µM	0.398
RD, 0.00017 µM	1.09
RD, 0.00051 µM	1.09
RD, 0.00152 µM	1.1
RD, 0.00457 µM	1.06
RD, 0.01372 µM	0.943
RD, 0.04115 µM	0.888
RD, 0.1235 µM	0.869
RD, 0.3704 µM	0.84
RD, 1.111 µM	0.803
RD, 3.333 µM	0.759
RD, 10 µM	0.681
SK-ES-1, 0.00017 µM	1.05
SK-ES-1, 0.00051 µM	1.09
SK-ES-1, 0.00152 µM	1.04
SK-ES-1, 0.00457 µM	0.98
SK-ES-1, 0.01372 µM	0.237
SK-ES-1, 0.04115 µM	0.065
SK-ES-1, 0.1235 µM	0.0636
SK-ES-1, 0.3704 µM	0.0641
SK-ES-1, 1.111 µM	0.061
SK-ES-1, 3.333 µM	0.0649
SK-ES-1, 10 µM	0.0658
SK-LMS-1, 0.00017 µM	1.02
SK-LMS-1, 0.00051 µM	1.02
SK-LMS-1, 0.00152 µM	1.03
SK-LMS-1, 0.00457 µM	1
SK-LMS-1, 0.01372 µM	1.06
SK-LMS-1, 0.04115 µM	1.01
SK-LMS-1, 0.1235 µM	0.917
SK-LMS-1, 0.3704 µM	0.855
SK-LMS-1, 1.111 µM	0.904
SK-LMS-1, 3.333 µM	0.887
SK-LMS-1, 10 µM	0.867
SW684, 0.00017 µM	1.11
SW684, 0.00051 µM	1.11
SW684, 0.00152 µM	1.15
SW684, 0.00457 µM	1.15
SW684, 0.01372 µM	1.12
SW684, 0.04115 µM	1.04
SW684, 0.1235 µM	1.06
SW684, 0.3704 µM	1.11
SW684, 1.111 µM	1.08
SW684, 3.333 µM	0.977
SW684, 10 µM	0.816
SW872, 0.00017 µM	1.01
SW872, 0.00051 µM	1.01
SW872, 0.00152 µM	0.9782
SW872, 0.00457 µM	0.985
SW872, 0.01372 µM	0.975
SW872, 0.04115 µM	0.962
SW872, 0.1235 µM	0.897
SW872, 0.3704 µM	0.918
SW872, 1.111 µM	0.912
SW872, 3.333 µM	0.892
SW872, 10 µM	0.8645
SYO-1, 0.00017 µM	0.939
SYO-1, 0.00051 µM	0.918
SYO-1, 0.00152 µM	0.891
SYO-1, 0.00457 µM	0.82
SYO-1, 0.01372 µM	0.479
SYO-1, 0.04115 µM	0.415
SYO-1, 0.1235 µM	0.397
SYO-1, 0.3704 µM	0.337
SYO-1, 1.111 µM	0.319
SYO-1, 3.333 µM	0.284
SYO-1, 10 µM	0.251
VA-ES-BJ, 0.00017 µM	1.01
VA-ES-BJ, 0.00051 µM	1.01
VA-ES-BJ, 0.00152 µM	0.986
VA-ES-BJ, 0.00457 µM	0.998
VA-ES-BJ, 0.01372 µM	0.84
VA-ES-BJ, 0.04115 µM	0.634
VA-ES-BJ, 0.1235 µM	0.619
VA-ES-BJ, 0.3704 µM	0.647
VA-ES-BJ, 1.111 µM	0.689
VA-ES-BJ, 3.333 µM	0.68
VA-ES-BJ, 10 µM	0.727
